From US20160212997A1, “AGRICULTURAL CHEMICALS” (REDAG CROP PROTECTION LTD, priority 2013, published 2016)
Read-outs that look alike come from different tables or passages of the source.

Legend:
Type in all cases: in vivo
[1] = system: red spider mites, Tetranychus urticae; assay: Potter tower spray on red spider mites, knockdown and mortality; conditions: for percentage control: Spider mites
Text: The compounds were screened for insecticidal efficacy against aphids, Myzus persicae, Cabbage moth, Mamestra brassicae, diamond black moths, Plutella xylostella, red spider mites, Tetranychus urticae, whitefly, Trialeurodes vaporariorum, in terms of knockdown and mortality.
Myzus persicae, Cabbage moth, Mamestra brassicae, diamond back moths, Plutella xylostella, red spider mites, Tetranychus urticae, whitefly, Trialeurodes vaporariorum, were obtained from specified laboratory cultures. Mixed sex and age aphids and mites, moth larvae and whitefly scale infested leaves were used in the experiments. Environmental conditions were closely monitored and recorded and were within the optimal range of the target species.
The compounds were screened at a range of five concentrations, diluted in DMSO. Some of the compounds were screened against aphids, whitefly and red spider mites and other compounds were screened against cabbage moth, and diamond black moths. A carrier only and an untreated control will also be conducted. Treatments were applied directly onto the insects within Petri dishes, using a potter tower.
Twenty mites and ten aphids, scales and moth larvae were placed within a Petri dish, lined with a suitable leaf disc on a damp cotton wool pad. Scales were already on leaves. The Petri dishes were then sprayed using a potter tower. The number of knocked down and anthropods were assessed at 24 and 48 hours post treatment. Five replicates were be performed for each treatment, for each species.

[2] = system: caterpillars, a mixture of Mamestra brassicae and Lacanobia oleracea; assay: Potter tower spray on caterpillars, knockdown and mortality; conditions: Caterpillars, read-out: Average of % corrected affected; for pest or weed control at 0.1 % strength: 0.1 % w/v; for pest or weed control at 0.00625 % strength: 0.00625 % w/v; for pest or weed control at 0.0125 % strength: 0.0125 % w/v; for pest or weed control at 0.025 % strength: 0.025 % w/v; for pest or weed control at 0.05 % strength: 0.05 % w/v
Method in brief: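 Mixed Mamestra brassicae and Lacanobia oleracea larvae (ten per dish, on leaf disc over damp cotton wool) sprayed directly with a Potter tower at five concentrations in DMSO containing 1% v/v Tween 20, alongside carrier-only and untreated controls. Knockdown and mortality scored at 24 and 48 h post treatment; five replicates per treatment.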

[3] = system: aphids, Myzus persicae; assay: Potter tower spray on aphids, knockdown and mortality; conditions: Aphids; for pest or weed control at 0.1 % strength / pest or weed control at 0.00625 % strength / pest or weed control at 0.0125 % strength / pest or weed control at 0.025 % strength / pest or weed control at 0.05 % strength: Myzus persicae, read-out: Average of % corrected affected; for pest or weed control at 0.1 % strength: 0.1 % w/v; for pest or weed control at 0.00625 % strength: 0.00625 % w/v; for pest or weed control at 0.0125 % strength: 0.0125 % w/v; for pest or weed control at 0.025 % strength: 0.025 % w/v; for pest or weed control at 0.05 % strength: 0.05 % w/v
Method in brief: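 Ten aphids (mixed sex and age) per Petri dish on a leaf disc were sprayed by Potter tower with compounds at five concentrations in DMSO. Knockdown and mortality were scored at 24 and 48 hours, five replicates per treatment, alongside carrier-only and untreated controls.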

[4] = 24 h, 24 hours post application
[5] = 48 h, 48 hours post application

Row | Structure (SMILES) | percentage control ([1]; 25 g/ha, 24 h) | percentage control ([1]; 25 g/ha, 48 h) | percentage control ([1]; 50 g/ha, 24 h) | percentage control ([1]; 50 g/ha, 48 h) | percentage control ([1]; 100 g/ha, 24 h) | percentage control ([1]; 100 g/ha, 48 h) | percentage control ([1]; 200 g/ha, 24 h) | percentage control ([1]; 200 g/ha, 48 h) | pest or weed control at 0.1 % strength [2, 4] [%] | pest or weed control at 0.00625 % strength [2, 5] [%] | pest or weed control at 0.0125 % strength [2, 5] [%] | pest or weed control at 0.025 % strength [2, 5] [%] | pest or weed control at 0.05 % strength [2, 5] [%] | pest or weed control at 0.1 % strength [2, 5] [%] | percentage control ([3]; 25 g/ha, 24 h) | percentage control ([3]; 25 g/ha, 48 h) | percentage control ([3]; 50 g/ha, 24 h) | percentage control ([3]; 50 g/ha, 48 h) | percentage control ([3]; 100 g/ha, 24 h) | percentage control ([3]; 100 g/ha, 48 h) | further results
1 | CC(c1ccc(C(F)(F)F)nc1)S(C)(=O)=NS(C)(=O)=O (stereo not drawn) [Compound 14, N-[methyl-oxo-[1-[6-(trifluoromethyl)-3-pyridyl]ethyl]-λ^6-sulfanylidene]methane-sulfonamide] | C (A percentage control of from 40 to 59 is indicated by the letter C) | C (A percentage control of from 40 to 59 is indicated by the letter C) | D (A percentage control of from 20 to 39 is indicated by the letter D) | C (A percentage control of from 40 to 59 is indicated by the letter C) | C (A percentage control of from 40 to 59 is indicated by the letter C) | B (A percentage control of from 60 to 79 is indicated by the letter B) | B (A percentage control of from 60 to 79 is indicated by the letter B) | B (A percentage control of from 60 to 79 is indicated by the letter B) | 1 to 19 | 1 to 19 | 1 to 19 | 1 to 19 | 1 to 19 | 1 to 19 | E (A percentage control of from 1 to 19 is indicated by the letter E) | E (A percentage control of from 1 to 19 is indicated by the letter E) | E (A percentage control of from 1 to 19 is indicated by the letter E) | D (A percentage control of from 20 to 39 is indicated by the letter D) | E (A percentage control of from 1 to 19 is indicated by the letter E) | D (A percentage control of from 20 to 39 is indicated by the letter D) | percentage control ([1]; 12.5 g/ha, 24 h): D (A percentage control of from 20 to 39 is indicated by the letter D); percentage control ([1]; 12.5 g/ha, 48 h): C (A percentage control of from 40 to 59 is indicated by the letter C); activity against spider mites compared with the reference compound ([1]; versus flupyradifurone or sulfoxaflor respectively, tables 1 and 3): more active than the reference compound; percentage control ([3]; 12.5 g/ha, 24 h): E (A percentage control of from 1 to 19 is indicated by the letter E); percentage control ([3]; 12.5 g/ha, 48 h): D (A percentage control of from 20 to 39 is indicated by the letter D); percentage control ([3]; 200 g/ha, 24 h): E (A percentage control of from 1 to 19 is indicated by the letter E); percentage control ([3]; 200 g/ha, 48 h): D (A percentage control of from 20 to 39 is indicated by the letter D); pest or weed control at 0.1 % strength [3, 4]: 20 to 39%; pest or weed control at 0.1 % strength [3, 5]: 20 to 39%
2 | CCOC(=O)CN(Cc1ccc(Cl)nc1)C1=CC(=O)OC1 [Compound 3, Ethyl 2-[(6-chloro-3-pyridyl)methyl-(5-oxo-2H-furan-3-yl)amino]acetate] | B (A percentage control of from 60 to 79 is indicated by the letter B) | C (A percentage control of from 40 to 59 is indicated by the letter C) | D (A percentage control of from 20 to 39 is indicated by the letter D) | D (A percentage control of from 20 to 39 is indicated by the letter D) | C (A percentage control of from 40 to 59 is indicated by the letter C) | C (A percentage control of from 40 to 59 is indicated by the letter C) | D (A percentage control of from 20 to 39 is indicated by the letter D) | D (A percentage control of from 20 to 39 is indicated by the letter D) | 1 to 19 | 1 to 19 | 1 to 19 | 1 to 19 | 1 to 19 | 20 to 39 | E (A percentage control of from 1 to 19 is indicated by the letter E) | D (A percentage control of from 20 to 39 is indicated by the letter D) | 0% | C (A percentage control of from 40 to 59 is indicated by the letter C) | E (A percentage control of from 1 to 19 is indicated by the letter E) | B (A percentage control of from 60 to 79 is indicated by the letter B) | percentage control ([1]; 400 g/ha, 24 h): D (A percentage control of from 20 to 39 is indicated by the letter D); percentage control ([1]; 400 g/ha, 48 h): D (A percentage control of from 20 to 39 is indicated by the letter D); pest or weed control at 0.00625 % strength [2, 4]: 1 to 19%; pest or weed control at 0.0125 % strength [2, 4]: 1 to 19%; pest or weed control at 0.025 % strength [2, 4]: 1 to 19%; pest or weed control at 0.05 % strength [2, 4]: 1 to 19%; percentage control ([3]; 200 g/ha, 24 h): E (A percentage control of from 1 to 19 is indicated by the letter E); percentage control ([3]; 200 g/ha, 48 h): C (A percentage control of from 40 to 59 is indicated by the letter C); percentage control ([3]; 400 g/ha, 24 h): E (A percentage control of from 1 to 19 is indicated by the letter E); percentage control ([3]; 400 g/ha, 48 h): B (A percentage control of from 60 to 79 is indicated by the letter B); pest or weed control at 0.00625 % strength [3, 4]: 1 to 19%; pest or weed control at 0.0125 % strength [3, 4]: 1 to 19%; pest or weed control at 0.025 % strength [3, 4]: 1 to 19%; pest or weed control at 0.05 % strength [3, 4]: 1 to 19%; pest or weed control at 0.1 % strength [3, 4]: 1 to 19%; pest or weed control at 0.00625 % strength [3, 5]: 1 to 19%; pest or weed control at 0.0125 % strength [3, 5]: 1 to 19%; pest or weed control at 0.025 % strength [3, 5]: 20 to 39%; pest or weed control at 0.05 % strength [3, 5]: 20 to 39%; pest or weed control at 0.1 % strength [3, 5]: 20 to 39%
